According to patent publication US20040142888A1, “Modulators of RabGGT and methods of use thereof” (priority 2002, published 2004):
Where two headings read alike, the source gives them in different places.

Experiments:
rat RabGGT = biological target: T1, rat RabGGT (Rattus norvegicus, UniProt Q08602+Q08603); assay: RabGGT filter binding assay: transfer of (3H)geranylgeranyl from 3H-GGPP to recombinant Rab3A; assay type: biochemical; settings: for IC90/IC50: RabGGT inhibition
T1 construct: purchased Calbiochem 345855; host or cells: Sf9/baculovirus
T1 sequence (Q08602 1-567): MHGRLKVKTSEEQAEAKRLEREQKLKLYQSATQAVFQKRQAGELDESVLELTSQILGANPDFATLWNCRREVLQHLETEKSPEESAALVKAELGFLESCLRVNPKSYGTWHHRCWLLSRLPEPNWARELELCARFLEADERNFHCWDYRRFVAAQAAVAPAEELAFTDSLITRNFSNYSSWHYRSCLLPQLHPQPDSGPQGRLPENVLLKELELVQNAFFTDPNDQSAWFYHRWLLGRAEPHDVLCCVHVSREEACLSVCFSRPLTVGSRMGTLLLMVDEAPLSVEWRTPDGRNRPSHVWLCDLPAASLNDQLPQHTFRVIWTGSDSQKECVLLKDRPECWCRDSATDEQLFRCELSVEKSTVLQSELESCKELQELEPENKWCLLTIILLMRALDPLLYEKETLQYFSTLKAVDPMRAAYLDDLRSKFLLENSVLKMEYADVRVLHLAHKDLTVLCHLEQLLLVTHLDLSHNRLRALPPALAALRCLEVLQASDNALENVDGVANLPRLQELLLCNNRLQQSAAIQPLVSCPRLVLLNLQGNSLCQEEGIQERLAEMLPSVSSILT
T1 sequence (Q08603 1-331): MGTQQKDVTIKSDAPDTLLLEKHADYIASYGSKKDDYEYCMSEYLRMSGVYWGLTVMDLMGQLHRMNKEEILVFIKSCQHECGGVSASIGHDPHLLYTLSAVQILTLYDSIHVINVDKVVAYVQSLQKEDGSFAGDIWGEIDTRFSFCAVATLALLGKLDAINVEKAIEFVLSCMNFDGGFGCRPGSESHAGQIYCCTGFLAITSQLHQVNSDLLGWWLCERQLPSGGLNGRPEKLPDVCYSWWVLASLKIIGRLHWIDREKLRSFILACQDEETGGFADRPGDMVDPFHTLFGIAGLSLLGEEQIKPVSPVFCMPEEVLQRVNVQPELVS
Description: The effect of compounds 7A through 7T on RabGGT activity was quantified using a filter binding assay that measures the transfer of (3H) geranylgeranyl groups (GG) from all-trans-(3H)geranylgeranyl pyrophosphate (3H-GGPP) to recombinant Rab3A protein (Shen & Seabra, 1996, JBC, 271 :3692; Armstrong et al., 1996, Methods in Enzymology 257:30). Modifications to published protocols are noted explicitly below.
Recombinant rat RabGGT, expressed using the Sf9/baculovirus system, was purchased from Calbiochem (cat. no. 345855). Recombinant unprenylated human Rab3A was obtained from Panvera.(cat. no. P2173). Human REβ-1, expressed in Sf9 cells, was obtained from Calbiochem (cat. no. 554000). Tritium labeled geranylgeranyl pyrophosphate was purchased from Amersham Pharmacia Biotech (15 Ci/mmol). Unlabeled GGPP was purchased from Sigma (cat. no. G-6025).
The reaction buffer contained 50 mM HEPES pH7.4, 5 mM MgCl2, 1 mM DTT, 1 mM Nβ-40. Solutions of RabGGT, Rab3A, REP-1, and GGPP were prepared in this reaction buffer. Final protein concentrations in the reaction mixture were modified from the published protocols, with the standard reaction mixture containing 2 μM Rab3A, 0.2 μM REP-1, 5 μM unlabeled GGPP, 0.5 μM labeled GGPP, and 10-50 nM RabGGT in a total volume of 20 μl. The specific activity of (3H)GGPP used in the assay was 3000 dpm/pmol.
Compounds were prepared as 50 mM stocks in DMSO and diluted to give an appropriate concentration for the assay as a 20% DMSO stock. 2 μl of the diluted compound stock was added to a 20 μl reaction to give a final DMSO concentration of 2% in the assay.
The order of addition of reagents was altered from the published protocols. Reaction mixtures were prepared by sequentially adding Rab3A and REP-1 proteins to the reaction buffer, followed by compound and RabGGT enzyme to a volume of 18 μl. Reactions were initiated by the addition of 2 μl of a solution that contained unlabeled and labeled GGPP. After a 30 minute incubation at 37° C., 1 ml of stop solution (1 volume of concentrated HCl acid with 9 volumes of ethanol) was added and mixed. The solution was then incubated at room temperature for 1 hour to completely precipitate proteins.
The precipitate was collected by vacuum filtration using a vacuum filtration manifold (Millipore model 1225) onto 25 mm GF/A filters (Whatman) that were prewetted with ethanol. The tubes were rinsed twice with 1 ml ethanol which was also poured over the filters. Each filter was subsequently washed three times with 2 mls of ethanol per wash, dried under vacuum, and then put in scintillation vials. Four milliliters of scintillation fluid was added and the radioactivity was quantified on a scintillation counter. Several types of blank reactions were conducted including withholding the enzyme, the substrate, or the accessory protein REP-1, or replacing the compound solution with a 20% DMSO solution. For the substrate titration experiment, the equimolar amounts of Rab3A and REP-1 were mixed and preincubated for 30 min at room temperature before addition of the enzyme.
The data was analyzed by non-linear regression analysis methods using the program PRIZM (GraphPad Software, Inc.). Inhibition constants were obtained by analyzing the data using the one site competition equation provided by the software. FIG. 7 presents a typical data series obtained for compound 7B using these methods.

[1] = test system: HCT-116 human colon tumor cells; assay: Compound-induced apoptosis in HCT-116 human colon tumor cells (microscopy for morphological markers); assay type: cell-based
Method: HCT-116 human colon tumor cells obtained from the American Type Culture Collection (ATCC) were grown in McCoy's 5A culture medium with 10% heat inactivated FBS, 1× penicillin/streptomycin, and 25 mM HEPES, in an incubator maintained at 37° C. with CO2 at 6-7% and humidity at 95%. Cells were treated with compounds using a dose range from 0.04 μM to 100 μM. After 48 hours they were examined by microscopy for signs of cell rounding, vaccuolation, and nuclear condensation. These are morphological markers associated with apoptosis, and are consistent with results obtained by performing an assay for nucleosomal DNA, or a TdT-mediated dUTP nick end labeling (TUNEL) assay.
The concentrations cited are the minimal concentration required to induce these morphological changes in 50% of the treated cells.

[2] = biological target: Farnesyl Transferase (FT) (Homo sapiens, UniProt P49354+P49356); assay: Biochemical assay for inhibition of farnesyl transferase (FT)
Method: Biochemical assays for inhibition of FT were performed as described by Mann et al. (1995, Drug Dev. Res. 34: 121) with the modifications described by Ding et al. (1999, J. Med. Chem., 42:5241)

[3] = recombinant rat RabGGT, Rab3A, REP-1, 30 minute at 37° C.
[4] = HCT-116, 48 h, HCT116 cells, 48 hours, minimal concentration inducing apoptotic morphological changes in 50% of treated cells, read-out: 50% APOPTOTIC
[5] = HCT-116, minimum concentration required to achieve apoptosis of 50% of the HCT116 cells (Table 7), read-out: HCT116 50% apoptosis
[6] = HCT-116, minimum concentration required to achieve apoptosis of 50% of the HCT116 cells (Table 8), read-out: HCT116 50% apoptosis

IC90/IC50 (rat RabGGT)	IC50 (rat RabGGT; Table 7) [nM]	IC50 (rat RabGGT; [3]) [nM]	IC90 (rat RabGGT; [3]) [nM]	EC50 [1, 4] [nM]	EC50 ([1]; HCT-116, 48 h, HCT-116 cells, 48 hours, read-out: minimum effective concentration (apoptosis in 50% of cells)) [nM]	EC50 [1, 5] [nM]	EC50 [1, 6] [nM]	IC50 [2] [nM]	IC90 [2] [nM]	SMILES
6	16	16	93	40	40	40	40	1.4	11	COc1ccc(S(=O)(=O)N2Cc3cc(C#N)ccc3N(Cc3cncn3C)C[C@H]2Cc2ccccc2)cc1 [Compound 7I]
9	21	21	199	370	–	370	370	7.8	110	N#Cc1ccc2c(c1)CN(S(=O)(=O)N1CCCCC1)[C@H](Cc1ccccc1)CN2Cc1cnc[nH]1 [Compound 7B]
5	12	12	58	2500	–	2500	2500	0.8	7	Cn1cncc1CN1C[C@@H](Cc2ccccc2)N(S(=O)(=O)c2cccs2)Cc2cc(C#N)ccc21 [Compound 7J]

Continued, compound first:

SMILES	IC90/IC50 (rat RabGGT)	IC50 (rat RabGGT; Table 7) [nM]	IC50 (rat RabGGT; [3]) [nM]	IC90 (rat RabGGT; [3]) [nM]	EC50 [1, 4] [nM]	EC50 ([1]; HCT-116, 48 h, HCT-116 cells, 48 hours, read-out: minimum effective concentration (apoptosis in 50% of cells)) [nM]	EC50 [1, 5] [nM]	EC50 [1, 6] [nM]	IC50 [2] [nM]	IC90 [2] [nM]
COc1ccc(S(=O)(=O)N2Cc3cc(C#N)ccc3N(Cc3cnc[nH]3)C[C@H]2Cc2ccccc2)cc1 [Compound 7A]	8	36	36	295	3700	–	3300	3300	2.4	30
CCCS(=O)(=O)N1Cc2cc(C#N)ccc2N(Cc2cnc[nH]2)C[C@H]1Cc1ccccc1 [Compound 7H]	5	21	21	115	370	–	370	370	4.1	360
